Key:
SK-N-AS cells [1] = experiment: Monolayer wound healing (scratch) assay; format: cell-based, human; conditions: 4 μM
Experimental: (§1) Migration was investigated using a monolayer wound healing (scratch) assay. Established NB cells (5 × 10^4) were plated in 12-well plates. […] Photographs of the plates were obtained at 0, 12, 24, and 36 h. The ImageJ MRI Wound Healing Tool (https://imagej.net, accessed on 26 November 2021) quantified the open wound area as previously described. In PDX cells, migration was assessed using modified Boyden chamber assays. Micropore inserts with […] (Corning) were utilized in 24-well plates. The insert bottoms were coated with human laminin (10 µg/mL, 150 μL, EMD Millipore). COA6 PDX cells were treated for 24 h with ATUX-3364 or ATUX-8385 (6 μM), plated (4 × 10^4 cells), allowed to migrate through the membrane for 72 h, and the insert membranes were fixed using 4% paraformaldehyde and stained with 1% crystal violet for 15 min. Inserts were photographed, and migration was quantified with ImageJ (https://imagej.net, accessed on 26 November 2021). Scratch assays were reported as the fold change area remaining open at 36 h, and modified Boyden chamber assays were reported as the mean number of migrated cells ± SEM. Experiments were completed with at least three biological replicates.

SK-N-BE(2) cells [2] = experiment: Monolayer wound healing (scratch) assay; format: cell-based, human; conditions: 4 μM, vs untreated cells, p ≤ 0.001
Experimental: as §1

SH-EP cells [3] = experiment: Monolayer wound healing (scratch) assay; format: cell-based, human; conditions: 12 μM, vs untreated cells, p ≤ 0.001
Experimental: as §1

WAC2 cells [4] = experiment: Monolayer wound healing (scratch) assay; format: cell-based, human; conditions: WAC2, 12 μM; vs untreated cells, p ≤ 0.001
Experimental: as §1

COA6 PDX cells [5] = experiment: Modified Boyden chamber migration assay; format: cell-based, human; conditions: COA6, 6 μM, treated 24 h, 72 h migration; p ≤ 0.001
Experimental: as §1

CIP2A = experiment: Immunoblotting for the endogenous PP2A inhibitor CIP2A; format: cell-based, human; conditions: immunoblot
Experimental: (§2) Post-treatment, cell lysis was completed in radioimmunoprecipitation (RIPA) buffer. Phosphatase inhibitors (P5726, Sigma), protease inhibitors (P8340, Sigma), and phenylmethanesulfonylfluoride (PMSF, P7626, Sigma) were added to make a complete RIPA buffer. Lysis was performed for 60 min at 4 °C followed by centrifugation at 17,000 rpm for 30 min (4 °C). The protein concentration was determined using the Pierce BCA Protein Assay (Thermo Fisher Scientific), and protein separation was completed on sodium dodecyl sulfate polyacrylamide (SDS-PAGE) gel-based electrophoresis. Targeted protein size was determined using molecular weight markers (Precision Plus Protein Kaleidoscope, Bio-Rad, Hercules, CA, USA). […] Immunoblots were developed with Luminata Classico or Crescendo Western horseradish peroxidase substrate (EMD Millipore, Burlington, MA, USA) on X-ray film. Anti-beta-actin, anti-vinculin, or anti-GAPDH served as internal loading controls.

PP2A = target: T1, PP2A (Homo sapiens, UniProt P30153+P67775+Q15172); experiment: PP2A Immunoprecipitation Phosphatase Assay on lysates of treated NB cells; format: cell-based; conditions: 24 h, control 100%, mean ± SEM
T1 construct: endogenous in cells; host or cells: SK-N-AS, SK-N-BE(2), SH-EP, WAC2 human neuroblastoma cells
Experimental: SK-N-AS, SK-N-BE(2), SH-EP, or WAC2 cells (1 × 10^6) were treated with ATUX-3364 or ATUX-8385 (SK-N-AS and SK-N-BE(2) 4 µM; SH-EP and WAC2 12 µM) for 24 h and lysed using HEPES ((4-(2-hydroxyethyl)-1-piperazineethanesulfonic acid, 10 mM) (AC215001000, Thermo Fisher Scientific), MgCl2 (1.5 mM) (MX0045-4, EM Science, Gibbstown, NJ, USA), KCl (10 mM) (02-003-741, Thermo Fisher Scientific), phenylmethylsulfonyl fluoride (0.5 mM) (PMSF, Sigma Aldrich), dithiothreitol (0.5 mM) (EC-601, National Diagnostics, Atlanta, GA, USA), and Igepal CA-630 (0.2%) (I7771, Sigma Aldrich) on ice for 20 min. Cell lysates were centrifuged at 17 000 rpm for 30 min at 4 °C. A PP2A Immunoprecipitation Phosphatase Assay Kit (17–313, EMD Millipore) was utilized per the manufacturer’s protocol to evaluate the activity of PP2A. Experiments were completed with at least three biological replicates, and data were reported as mean fold change ± standard error of the mean (SEM).

SK-N-BE(2) tumors = experiment: In vivo tumor growth, flank xenograft; design: species or system athymic nude mice; conditions: 50 mg/kg oral twice daily, 21 days
Experimental: (§3) SK-N-AS or SK-N-BE(2) (1.5 × 10^6) cells in 25% Matrigel (BD Biosciences) were injected into the right flank of 6-week-old female athymic nude mice (Fredricks) (n = 7 for SK-N-AS vehicle treated, n = 6 for SK-N-AS experimental groups, n = 5 for SK-N-BE(2) vehicle treated, n = 6 for SK-N-BE(2) ATUX-3364, and n = 7 ATUX-8385 treatment groups). Tumors were measured thrice per week with calipers, and tumor volumes were calculated by the formula (width^2 × length)/2, where the width was the smaller measurement. When tumors reached a volume of 60–100 mm^3, animals were randomized to three groups to receive 100 µL twice daily by oral gavage of vehicle [N,N-dimethylacetamide (DMA, 271012, Sigma Aldrich) and Kolliphor HS 15 (Solutol, 42996, Sigma Aldrich)], ATUX-3364 (50 mg/kg in DMA and Solutol), or ATUX-8385 (50 mg/kg in DMA and Solutol); dosing was based on previously published data using in vivo cancer models. Animals were weighed daily and were humanely euthanized in their home cages with CO2 and cervical dislocation 14 (SK-N-AS) or 21 (SK-N-BE(2)) days after treatment initiation, when the tumor volume reached 2000 mm^3, or when animals met IACUC parameters. Because COA6 cells grow tumors unpredictably and erratically in mice, these PDX cells were not utilized for in vivo studies, but all COA6 tumors were propagated in mice.

SK-N-AS tumors = experiment: In vivo tumor growth, flank xenograft; design: species or system athymic nude mice; conditions: 50 mg/kg oral twice daily, 14 days
Experimental: as §3

[6] = In vitro microsome (oxidative) stability / in vitro metabolism; format: in vitro ADME
PARP = experiment: Immunoblotting for cleaved and total PARP (apoptosis); format: cell-based, human; conditions: immunoblot
Experimental: as §2

SET = experiment: Immunoblotting for the endogenous PP2A inhibitor SET; format: cell-based, human; conditions: immunoblot
Experimental: as §2

MYCN = experiment: Immunoblotting for phosphorylated MYCN (S62) and total MYCN; format: cell-based, human; conditions: increasing concentrations, immunoblot
Experimental: as §2

SK-N-AS cells [7] = experiment: Cell viability, alamarBlue assay; format: cell-based, human; conditions: SK-N-AS, 0, 5, 7.5, 20 μM, 24 h
Experimental: (§4) Cell viability was determined by alamarBlue assay (Thermo Fisher Scientific) and proliferation was detected with CellTiter 96 Proliferation assay (Promega, Madison, WI, USA). NB cell lines (15,000 cells for viability or 5000 for proliferation) or COA6 PDX cells (30,000 for viability or 10,000 for proliferation) were seeded in 96-well cell culture plates followed by treatment with increasing doses of ATUX-3364 or ATUX-8385 for 24 h. Doses were as follows: established cell lines, 0–20 µM; PDX COA6 cells, 0–25 µM. Respective dyes (10 µL) were added, and absorbance measurement was completed with a microplate reader (Epoch Microplate Spectrophotometer, BioTek Instruments, Winooski, VT, USA). A wavelength of 570 nm was used for alamarBlue and 490 nm for CellTiter 96 with 600 nm serving as the reference for both. A minimum of three biological replicates for each experiment were completed, and data were reported as fold change ± SEM.

SK-N-BE(2) cells [8] = experiment: Cell viability, alamarBlue assay; format: cell-based, human; conditions: SK-N-BE(2), 0, 5, 7.5, 20 μM, 24 h
Experimental: as §4

SH-EP cells [9] = experiment: Cell viability, alamarBlue assay; format: cell-based, human; conditions: SH-EP, 0, 5, 7.5, 20 μM, 24 h
Experimental: as §4

WAC2 cells [10] = experiment: Cell viability, alamarBlue assay; format: cell-based, human; conditions: WAC2, 0, 5, 7.5, 20 μM, 24 h
Experimental: as §4

COA6 PDX cells [11] = experiment: Cell viability, alamarBlue assay; format: cell-based, human; conditions: COA6 PDX cells, 0, 5, 10, 20 μM, 24 h
Experimental: as §4

SK-N-AS cells [12] = experiment: Proliferation, CellTiter 96 assay; format: cell-based, human; conditions: increasing doses, 24 h
Experimental: as §4

SK-N-BE(2) cells [13] = experiment: Proliferation, CellTiter 96 assay; format: cell-based, human; conditions: increasing doses, 24 h
Experimental: as §4

SH-EP cells [14] = experiment: Proliferation, CellTiter 96 assay; format: cell-based, human; conditions: increasing doses, 24 h
Experimental: as §4

WAC2 cells [15] = experiment: Proliferation, CellTiter 96 assay; format: cell-based, human; conditions: WAC2, increasing doses, 24 h
Experimental: as §4

COA6 PDX cells [16] = experiment: Proliferation, CellTiter 96 assay; format: cell-based, human; conditions: increasing doses, 24 h
Experimental: as §4

[17] = Pharmacokinetic studies of ATUX-8385 in mice (IV and PO), plasma by LC-MS/MS; format: in vivo
Experimental: Pharmacokinetic (PK) studies of ATUX-8385 were conducted by Eurofins. Briefly, ATUX-8385 was administered at 1 mg/kg intravenously (IV) or 30 mg/kg oral (PO) to male mice, as is the experimental choice of the Contract Research Organization. At euthanasia, samples were collected and stored at −70 °C until processing. The plasma samples were collected at 0.05, 0.167, 0.5, 1, 2, 4, 8, and 24 h(s) after IV treatment, and at 0.167, 0.5, 1, 2, 4, 6, 8, and 24 h(s) after PO treatment. The plasma samples were processed using acetonitrile precipitation and analyzed by liquid chromatography–tandem mass spectrometry (LC-MS/MS).

[18] = design: method as in PMID 35454859; conditions: in vivo; cited from earlier work
[19] = design: method as in PMID 35454859; conditions: cited from earlier work

T1 sequence (P30153 2-589 limits assumed): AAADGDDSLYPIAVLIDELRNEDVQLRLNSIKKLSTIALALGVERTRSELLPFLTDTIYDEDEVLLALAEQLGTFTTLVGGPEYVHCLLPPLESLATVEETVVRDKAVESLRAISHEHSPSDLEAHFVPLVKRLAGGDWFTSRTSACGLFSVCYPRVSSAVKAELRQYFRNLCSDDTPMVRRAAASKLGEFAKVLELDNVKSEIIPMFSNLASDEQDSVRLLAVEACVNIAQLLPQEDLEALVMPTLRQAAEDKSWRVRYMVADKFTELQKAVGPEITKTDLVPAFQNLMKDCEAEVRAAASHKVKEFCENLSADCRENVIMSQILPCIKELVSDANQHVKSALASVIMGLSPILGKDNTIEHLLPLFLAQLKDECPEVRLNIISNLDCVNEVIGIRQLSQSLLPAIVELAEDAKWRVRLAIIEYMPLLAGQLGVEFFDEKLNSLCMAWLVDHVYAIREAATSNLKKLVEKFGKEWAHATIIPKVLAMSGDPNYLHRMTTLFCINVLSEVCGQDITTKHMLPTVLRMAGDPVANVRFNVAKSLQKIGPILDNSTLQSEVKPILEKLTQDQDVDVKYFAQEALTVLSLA
T1 sequence (P67775 whole entry): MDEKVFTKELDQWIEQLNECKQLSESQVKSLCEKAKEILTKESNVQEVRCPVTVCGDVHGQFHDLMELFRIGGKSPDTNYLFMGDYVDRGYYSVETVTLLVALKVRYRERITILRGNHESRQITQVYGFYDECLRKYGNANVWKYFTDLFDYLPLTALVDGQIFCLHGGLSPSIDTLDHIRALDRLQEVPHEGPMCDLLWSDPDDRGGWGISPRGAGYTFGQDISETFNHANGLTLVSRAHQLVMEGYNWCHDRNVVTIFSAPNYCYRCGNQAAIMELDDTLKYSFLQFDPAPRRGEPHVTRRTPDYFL
T1 sequence (Q15172 whole entry): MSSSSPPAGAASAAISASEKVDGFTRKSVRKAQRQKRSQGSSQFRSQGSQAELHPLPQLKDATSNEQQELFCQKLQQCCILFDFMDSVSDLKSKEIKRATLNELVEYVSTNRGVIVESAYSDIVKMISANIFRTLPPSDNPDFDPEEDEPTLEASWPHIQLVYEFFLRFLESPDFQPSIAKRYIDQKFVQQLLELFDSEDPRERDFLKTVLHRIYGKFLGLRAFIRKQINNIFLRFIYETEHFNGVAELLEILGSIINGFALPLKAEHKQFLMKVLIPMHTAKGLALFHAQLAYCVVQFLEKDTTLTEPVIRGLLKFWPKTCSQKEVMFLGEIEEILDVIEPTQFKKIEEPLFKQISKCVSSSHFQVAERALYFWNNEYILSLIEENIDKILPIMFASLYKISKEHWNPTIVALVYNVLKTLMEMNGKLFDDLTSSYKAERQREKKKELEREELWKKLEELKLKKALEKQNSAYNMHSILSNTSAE

In the case of O=S(=O)(N[C@@H]1CNC[C@H](n2c3ccc(F)cc3c3cc(F)ccc32)[C@H]1O)c1ccc(OC(F)(F)F)cc1 [ATUX-8385], the “motility (wound healing, area remaining open at 36 h)” value (SK-N-AS cells [1]) is reported as “affected in a statistically significant manner”, the “motility (wound healing, area remaining open at 36 h)” value (SK-N-BE(2) cells [2]) is reported as “significant decrease in motility” and the “motility (wound healing, area remaining open at 36 h)” value (SH-EP cells [3]) is reported as “significant decrease in motility”. For the same molecule, the “motility (wound healing, area remaining open at 36 h)” value (WAC2 cells [4]) was “significant decrease in motility”, the “cell migration (number of migrated cells)” value (COA6 PDX cells [5]) was “significantly decreased” and the CIP2A expression (CIP2A; SH-EP cells) was “decreased”. The CIP2A expression (CIP2A; SK-N-AS cells) was “decreased”, the CIP2A expression (CIP2A; SK-N-BE(2) cells) was “decreased” and the CIP2A expression (CIP2A; WAC2 cells) was “decreased”. The “PP2A activation (percent of control)” value (PP2A; SH-EP cells, 12 μM) was 126.6 ± 6.4%, the “PP2A activation (percent of control)” value (PP2A; SK-N-AS cells, 4 μM) was 134.1 ± 5.5% and the “PP2A activation (percent of control)” value (PP2A; SK-N-BE(2) cells, 4 μM) was 167.2 ± 13.7%. For the same molecule, the “PP2A activation (percent of control)” value (PP2A; WAC2 cells, 12 μM) was 118.2 ± 9.2%, the relative tumor growth (SK-N-BE(2) tumors) was “significant decrease” and the tumor volumes (SK-N-BE(2) tumors) was “significant decrease”. The relative tumor growth (SK-N-AS tumors) was “no decrease”, the tumor volumes (SK-N-AS tumors) was “no decrease” and the “microsome stability relative to DBK-1154” value ([6]; <115.5 vs 234 µL/min/mg) was “more stable by a factor of two”. The “Clearance (in vitro microsome (oxidative) stability)” value ([6]; Test Concentration 1 x 10^-7 M) was under 115.5 µL/min/mg, the “cleaved PARP” value (PARP; SK-N-AS whole cell lysates) was “increase” and the “total PARP” value (PARP; SK-N-AS whole cell lysates) was “decrease”. For the same molecule, the “cleaved PARP” value (PARP; SK-N-BE(2) whole cell lysates) was “increase”, the “total PARP” value (PARP; SK-N-BE(2) whole cell lysates) was “decrease” and the SET expression (SET; COA6 PDX cells) was “variably affected”. The SET expression (SET; SH-EP cells) was “did not alter SET expression”, the SET expression (SET; SK-N-AS cells) was “unchanged” and the SET expression (SET; SK-N-BE(2) cells) was “increased”. The SET expression (SET; WAC2 cells) was “decreased”, the “phosphorylated MYCN (S62)” value (MYCN; SK-N-AS cells) was “decreased” and the “total MYCN protein expression” value (MYCN; SK-N-AS cells) was “decreased”. For the same molecule, the “phosphorylated MYCN (S62)” value (MYCN; SK-N-BE(2) cells) was “decreased”, the “total MYCN protein expression” value (MYCN; SK-N-BE(2) cells) was “decreased” and the viability (SK-N-AS cells [7]) was “significantly decreased viability”. The viability (SK-N-BE(2) cells [8]) was “significantly decreased viability”, the viability (SH-EP cells [9]) was “significantly decreased viability” and the viability (WAC2 cells [10]) was “significantly decreased viability”. For the same molecule, the viability (COA6 PDX cells [11]) was “significantly decreased”, the proliferation (SK-N-AS cells [12]) was “significant decrease” and the proliferation (SK-N-BE(2) cells [13]) was “significant decrease”. The proliferation (SH-EP cells [14]) was “significant decrease”, the proliferation (WAC2 cells [15]) was “significant decrease” and the proliferation (COA6 PDX cells [16]) was “significant decrease”. The “in vivo IV clearance stability relative to DBK-1154” value ([17]; 12.3 vs 32.5 mL/min/kg) was “more stable by a factor of nearly three times” and the Plasma levels ([17]; for approximately 8 h after a bolus oral dose at 30 mg/kg) was 1 to 2 µM.
For O=S(=O)(NC1CCCC(N2c3ccccc3CCc3ccccc32)C1O)c1ccc(OC(F)(F)F)cc1 (stereo not shown) [DBK-1154], the “clearance IV” value [18] is listed as 32.5 mL/min/kg and the “in vitro microsome (oxidative) stability (clearance)” value [19] is listed as 234 µL/min/mg.
